Literature values, collected in publication PMC6262012, “IMB-T130 targets 3-dehydroquinate synthase and inhibits Mycobacterium tuberculosis” (Scientific Reports, 2018).

Test system: M. tuberculosis
Conditions: drug-resistant strains, compared with RFP and INH; cited from earlier work

O=C(Nc1nc(-c2ccccn2)cs1)c1ccc(Cl)s1 [IMB-T130, 5-chloro-N-[4-(pyridin-2-yl)-1,3-thiazol-2-yl] thiophene-2-carboxamide]
MIC against drug-resistant strains: substantially lower MIC
